Test results: patent publication US20260176260A1, “DUAL RAF AND TUBULIN INHIBITORS AND METHODS OF USE THEREOF” (Deciphera Pharmaceuticals, LLC, priority 2023, published 2026)
Read-outs that look alike come from different tables or passages of the source.

Assays:
B-Raf kinase = molecular target: T1, B-Raf kinase (Homo sapiens, UniProt P15056); assay: Biochemical assay for B-Raf (coupled pyruvate kinase/lactate dehydrogenase); settings: read-out: BRAF
T1 construct: purchased Sigma

C-Raf kinase = molecular target: T2, C-Raf kinase (Homo sapiens, UniProt P04049, Y340D/Y341D); assay: Biochemical assay for C-Raf (coupled pyruvate kinase/lactate dehydrogenase); settings: read-out: CRAF
T2 construct: C-Raf residues 306-end; Y340D, Y341D with N-; purchased Sigma

MiaPaca-2 cells = assay: MiaPaca-2 cell proliferation assay (resazurin); format: cell-based; settings: read-out: MiaPaca-2
Pa16c cells = assay: Pa16c cell proliferation assay (resazurin); format: cell-based; settings: Table 2, inhibition of cell proliferation
Procedure, shortened: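 Pa16c cells, 750 per well in DMEM with 10% FBS, exposed to serially diluted compound in triplicate for 67-72 h at 37 °C. Resazurin then added for a further 18-24 h, fluorescence read at Ex 540/Em 600 nm, and IC50 calculated.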

[1] = test system: tubulin polymerization in HCT-116 cells; assay: Cellular tubulin polymerization assay (pellet/supernatant a-tubulin, HCT-116 cells); format: cell-based; settings: Table 3, HCT-116 cells; read-out: Tubulin Cellular
Method: HCT-116 cells (catalog #CCL-247) are obtained from the American Type Culture Collect (ATCC, Manassas, VA). Briefly, cells are grown in McCoy's 5A supplemented with 10% characterized fetal bovine serum (Invitrogen, Carlsbad, CA) and 1% Penicillin/Streptomycin/L-Glutamine at 37° C., 5% CO2, and 95% humidity. Cells are expanded until reaching 70-95% confluency at which point they are sub-cultured or harvested for assay use. 450000 cells are added per well in 1500 μL complete growth medium in a tissue culture treated, 12-well plate. Plates are incubated for 18 to 24 h at 37° C., 5% CO2, and 95% humidity. At the end of the incubation, 2000 μL of base culture media is added to each well, followed by a serial dilution of compound. Plates are incubated for an additional 1 h at 37° C., 5% CO2, and 95% humidity. Lysates are generated by the addition of 100 μL Lysis and Microtubule Stabilization Buffer 1 (LMS01, Cytoskeleton Inc, Denver, CO) supplemented with GTP (BST06, Cytoskeleton Inc), ATP (BSA04, Cytoskeleton Inc), and Protease Inhibitor Cocktail Stock (PIC02, Cytoskeleton Inc). Cells are scraped off wells using a rubber cell scraper and collected in a clean 96-well plate. Lysates are centrifuged at 1000×g, 37° C. for 10 min and supernatant fraction is placed into an additional 96-well plate. The remaining pellet fraction is reconstituted in 100 μL LMS01 buffer and sonicated for 10 min. Pellet and Supernatant fractions are probed for a-tubulin via western blot analysis on the Jess System or equivalent (Bio-techne, Minneapolis, MN). Data is analyzed using Prism software (Graphpad, San Diego, CA) to calculate IC50 values.

[2] = Table 1, inhibition of biochemical activity
[3] = Homo sapiens, MIA PaCa-2, Table 2, inhibition of cell proliferation

T2 sequence (P04049 307-648 Y340D/Y341D): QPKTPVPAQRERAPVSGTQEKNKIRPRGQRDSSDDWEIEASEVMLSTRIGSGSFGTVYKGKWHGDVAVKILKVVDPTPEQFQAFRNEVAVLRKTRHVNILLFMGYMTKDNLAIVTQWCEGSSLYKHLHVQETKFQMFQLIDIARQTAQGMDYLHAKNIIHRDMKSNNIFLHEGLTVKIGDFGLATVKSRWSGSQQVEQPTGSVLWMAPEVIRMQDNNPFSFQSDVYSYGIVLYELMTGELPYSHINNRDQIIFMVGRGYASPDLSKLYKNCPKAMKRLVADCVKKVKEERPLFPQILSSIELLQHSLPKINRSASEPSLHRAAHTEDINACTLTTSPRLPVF
T1 sequence (P15056 416-766): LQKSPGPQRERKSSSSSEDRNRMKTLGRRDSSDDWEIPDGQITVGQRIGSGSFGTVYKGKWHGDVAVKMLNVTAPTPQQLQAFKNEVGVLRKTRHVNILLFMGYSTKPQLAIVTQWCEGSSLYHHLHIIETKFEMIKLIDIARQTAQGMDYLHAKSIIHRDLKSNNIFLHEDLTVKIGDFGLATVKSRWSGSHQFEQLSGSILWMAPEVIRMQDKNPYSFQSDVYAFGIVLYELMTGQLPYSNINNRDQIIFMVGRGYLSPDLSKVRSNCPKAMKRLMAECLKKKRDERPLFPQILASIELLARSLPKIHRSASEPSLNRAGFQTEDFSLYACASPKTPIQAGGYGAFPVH

Row | SMILES | IC50 (B-Raf kinase; [2]) [nM] | IC50 (B-Raf kinase; Table 3) [nM] | IC50 (C-Raf kinase; [2]) [nM] | IC50 (C-Raf kinase; Table 3) [nM] | IC50 (MiaPaca-2 cells; [3]) [nM] | IC50 (MiaPaca-2 cells; Table 3) [nM] | IC50 (Pa16c cells) [nM] | IC50 [1] [nM]
1 | CNC(=O)c1cc(-c2cc(-c3cc(NC(=O)c4cc(C(F)(F)F)cnn4)ccc3C)cc(NCCO)n2)ccn1 [Example 18] | < 100 | < 100 | < 100 | < 100 | < 100 | < 100 | < 100 | < 100
2 | CNC(=O)c1cc(-c2cc(-c3cc(NC(=O)c4cc(C(F)(F)F)cnn4)ccc3C)ccn2)ccn1 [Example 9] | < 100 | < 100 | < 100 | < 100 | 100 to 500 | 100 to 500 | 100 to 500 | 100 to 500
3 | CNC(=O)c1cc(-c2cc(-c3cc(NC(=O)c4cc(C(F)(F)F)cnn4)ccc3C)cc(C)n2)ccn1 [Example 2, N,6-dimethyl-4-(2-methyl-5-(5-(trifluoromethyl)pyridazine-3-carboxamido)phenyl)-[2,4′-bipyridine]-2′-carboxamide] | 100 to 500 | 100 to 500 | < 100 | < 100 | 100 to 500 | 100 to 500 | 500 to 1000 | 100 to 500
4 | CNC(=O)c1cc(-c2cc(-c3cc(NC(=O)c4cc(C5CC5)cnn4)ccc3C)cc(NCCO)n2)ccn1 [Example 27] | < 100 | < 100 | < 100 | < 100 | 100 to 500 | 100 to 500 | < 100 | 100 to 500
5 | CNC(=O)c1cc(-c2cc(-c3cc(NC(=O)c4cc(C5CC5)cnn4)ccc3C)ccn2)ccn1 [Example 26] | < 100 | < 100 | < 100 | < 100 | 100 to 500 | 100 to 500 | 100 to 500 | 100 to 500
